From PMC10632401, “Cell-free biosynthesis combined with deep learning accelerates de novo-development of antimicrobial peptides” (Nature Communications, 2023)
Residues, ends and D or L forms follow the SMILES beside them. No end group written: not given here.

Tests used:
[1] = test system: E. coli MG1655; conditions: MG1655, 20 h
[2] = test system: B. subtilis PY79; conditions: PY79, 20 h
[3] = in vitro; conditions: human
[4] = test system: K. pneumoniae DSM 30104; conditions: DSM 30104, 20 h
[5] = test system: E. faecium (isolate from the gut of the cow); conditions: 20 h
[6] = test system: P. aeruginosa DSM 1117; conditions: DSM 1117, 20 h
[7] = test system: A. baumannii (isolate from the human abdominal wall); conditions: 20 h

Q: With CC[C@H](C)[C@H](NC(=O)[C@H](CO)NC(=O)[C@H](CO)NC(=O)[C@H](CO)NC(=O)[C@H](CCCNC(=N)N)NC(=O)[C@@H](NC(=O)[C@H](CO)NC(=O)[C@@H](N)CCSC)[C@@H](C)O)C(=O)N[C@@H](CCCNC(=N)N)C(=O)N[C@@H](CCCNC(=N)N)C(=O)N[C@@H](CC(C)C)C(=O)N[C@H](C(=O)N[C@@H](CCC(=O)O)C(=O)N[C@@H](C)C(=O)N[C@H](C(=O)N[C@@H](CCCNC(=N)N)C(=O)N[C@H](C(=O)N[C@@H](CCCNC(=N)N)C(=O)N[C@@H](Cc1ccccc1)C(=O)N[C@@H](CCCNC(=N)N)C(=O)N[C@@H](C)C(=O)N[C@@H](C)C(=O)N[C@@H](CC(C)C)C(=O)N[C@@H](CCCNC(=N)N)C(=O)N[C@H](C(=O)N[C@H](C(=O)N[C@@H](CC(C)C)C(=O)N[C@@H](Cc1ccccc1)C(=O)N[C@@H](Cc1ccccc1)C(=O)N[C@@H](C)C(=O)N[C@@H](CC(C)C)C(=O)N[C@@H](CCCNC(=N)N)C(=O)N[C@H](C(=O)N[C@H](C(=O)N[C@@H](CCCCN)C(=O)N[C@@H](CCCNC(=N)N)C(=O)N[C@@H](CCCNC(=N)N)C(=O)N1CCC[C@H]1C(=O)N[C@@H](CCCNC(=N)N)C(=O)N[C@@H](CCCNC(=N)N)C(N)=O)[C@@H](C)O)[C@@H](C)O)C(C)C)[C@@H](C)O)[C@@H](C)O)C(C)C)C(C)C [AMP #23] (H-MSTRSSSIRRLVEAVRTRFRAALRTVLFFALRTTKRRPRR-NH2) as the compound, how does the “E. coli MIC” value [1] read?
A: 20.8 µM

Q: And the “B. subtilis MIC” value [2]?
A: 1.6 µM

Q: And the CC50 [3]?
A: 79.1 µM

Q: With “MKKKKKGILKQNNKKKKYTLFNRMVVFLFLGFIMIIFVQKYKKVIYHK-NH2 [AMP #29]” as the compound, how does the “E. coli MIC” value [1] read?
A: 12.5 µM

Q: And the “B. subtilis MIC” value [2]?
A: 6.3 µM

Q: And the CC50 at 24 h [3]?
A: > 250 µM

Q: What does the source list for “MYLKKFLALKNSLKKLSPFKCAVKSWLKKCAEVTFYSKLLGRRGKKDGN-NH2 (cysteines drawn unpaired) [AMP #6]”?
A: MIC K. pneumoniae [4]: 12.5 µM; MIC E. faecium [5]: 6.3 µM; E. coli MIC [1]: 25.0 µM; B. subtilis MIC [2]: 2.1 µM; CC50 at 24 h [3]: 67.5 µM; MIC P. aeruginosa [6]: 25.0 µM; MIC A. baumannii [7]: 6.3 µM

Q: For “MKLRRRLRTRMVALLVLGVLFLLMLFFIIFLRRMLMRRFRA-NH2 [AMP #26]”, which “E. coli MIC” value [1] is on record?
A: 100.0 µM

Q: And the “B. subtilis MIC” value [2]?
A: 37.5 µM

Q: What about the CC50 [3] of the same compound?
A: > 250 µM

Q: What does the source list for “MRNFFKKTRLKYKGKKELIKKSRAFGLKTKKRSGFFFPRALKYEEEFY-NH2 [AMP #7]”?
A: E. coli MIC [1]: > 100 µM; B. subtilis MIC [2]: 1.6 µM; CC50 at 24 h [3]: 133 µM

Q: Which “MIC E. faecium” value [5] does the source give for “MWIKWKKPRKWGRRLKKKEKEELGDYIYLYCKVYRLFGFLPYFISKKTA-NH2 [AMP #17]” here?
A: 6.3 µM

Q: And the “E. coli MIC” value [1]?
A: 12.5 µM

Q: And the “B. subtilis MIC” value [2]?
A: 6.3 µM

Q: And the CC50 at 24 h [3]?
A: 134 µM

Q: What about the “MIC A. baumannii” value [7] of the same compound?
A: 6.3 µM

Q: For “MGWWFPPKTGNGAGKAFKKAAAAKWGGLFLKAAWFANKGEWGGGFPKGY-NH2 [AMP #9]”, which “MIC K. pneumoniae” value [4] is on record?
A: 25.0 µM

Q: What about the “MIC E. faecium” value [5] of the same compound?
A: 6.3 µM

Q: And the “E. coli MIC” value [1]?
A: 25.0 µM

Q: What about the “B. subtilis MIC” value [2] of the same compound?
A: 3.1 µM

Q: And the CC50 at 24 h [3]?
A: 146 µM

Q: For “MLFGSRAKKYGKEAKQEKSFQYPKSSFVACKKKWKRSKHFFKTFKKKVS-NH2 [AMP #1]”, which “E. coli MIC” value [1] is on record?
A: > 100 µM

Q: What about the “B. subtilis MIC” value [2] of the same compound?
A: 0.8 µM

Q: What about the CC50 at 24 h [3] of the same compound?
A: 113 µM

Q: For “MNNRGPLGRRFKARRKWKKFVAGKMKKKRKRFKGFKKKGGFTPFVKKFV-NH2 [AMP #3]”, which “MIC E. faecium” value [5] is on record?
A: 1.6 µM

Q: What about the “E. coli MIC” value [1] of the same compound?
A: 12.5 µM

Q: And the “B. subtilis MIC” value [2]?
A: 0.8 µM

Q: What about the CC50 at 24 h [3] of the same compound?
A: 68 µM

Q: And the “MIC A. baumannii” value [7]?
A: 6.3 µM

Q: What does the source list for “H-MWFDRKKFFWPGVCLFLLFFPKRFYKKGPEKVFSFRKKYKFARKCKCKL-NH2 (cysteines drawn unpaired) [AMP #12]”?
A: MIC K. pneumoniae [4]: 25.0 µM; MIC E. faecium [5]: 12.5 µM; MIC P. aeruginosa [6]: 25.0 µM

Q: What does the source list for “MAIRIIGRLARVRARVVARVRSRLLADDPPEDLLRVARRRKGRRWLFLS-NH2 [AMP #24]”?
A: MIC E. faecium [5]: 6.3 µM; E. coli MIC [1]: 25.0 µM; B. subtilis MIC [2]: 1.6 µM; CC50 at 24 h [3]: 91.7 µM
